Measured values taken from US9675070B2 (BAYER CROPSCIENCE AG, priority 2013, dated 2017).

Experiments:
[1] = test system: southern root-knot nematode (Meloidogyne incognita); assay: Meloidogyne incognita test (MELGIN); format: in vivo; conditions: application rate 20 ppm; lettuce; after 14 days
Procedure: Meloidogyne incognita Test (MELGIN) Solvent: 125.0 parts by weight of acetone To prepare a suitable active compound preparation, 1 part by weight of active compound is mixed with the stated amount of solvent and the concentrate is diluted with water to the desired concentration. Vessels are filled with sand, active compound solution, an egg/larvae suspension of the southern root-knot nematode (Meloidogyne incognita) and lettuce seeds. The lettuce seeds germinate and the plants develop. On the roots, galls are formed. After 14 days, the nematicidal efficacy in % is determined by the formation of galls. 100% means that no galls have been found; 0% means that the number of galls on the treated plants corresponds to the untreated control.

[2] = test system: greenhouse red spider mite (Tetranychus urticae), OP-resistant; assay: Tetranychus urticae spray test, OP-resistant (TETRUR); format: in vivo; conditions: application rate 100 g/ha; bean leaf discs; after 6 days
[3] = test system: adult houseflies (Musca domestica); assay: Musca domestica test (MUSCDO); format: in vivo; conditions: application rate 100 ppm; after 2 days
Procedure: Musca domestica Test (MUSCDO) Solvents: dimethyl sulphoxide To produce a suitable preparation of active compound, 10 mg of active compound are mixed with 0.5 ml of dimethyl sulphoxide, and the concentrate is diluted with water to the desired concentration. Vessels containing a sponge treated with sugar solution and the active compound preparation of the desired concentration are populated with 10 adult houseflies (Musca domestica). After 2 days, the kill in % is determined. 100% means that all of the flies have been killed; 0% means that none of the flies have been killed.

[4] = test system: L1 larvae of the Australian sheep blowfly (Lucilia cuprina); assay: Lucilia cuprina test (LUCICU); format: in vivo; conditions: application rate 100 ppm; minced horsemeat; after 2 days
[5] = test system: engorged adult female cattle ticks (Boophilus microplus); assay: Boophilus microplus injection test (BOOPMI Inj); format: in vivo; conditions: application rate 20 μg/animal; injection into abdomen; assessed after 7 days
[6] = test system: larvae of the mustard beetle (Phaedon cochleariae); assay: Phaedon cochleariae spray test (PHAECO); format: in vivo; conditions: application rate 100 g/ha; Chinese cabbage leaf discs; after 7 days
[7] = test system: caterpillars of the armyworm (Spodoptera frugiperda); assay: Spodoptera frugiperda spray test (SPODFR); format: in vivo; conditions: application rate 100 g/ha; maize leaf discs; after 7 days
[8] = test system: adult cat fleas (Ctenocephalides felis); assay: Ctenocephalides felis oral test (CTECFE); format: in vivo; conditions: application rate 100 ppm in citrated cattle blood; after 2 days
[9] = test system: Tick nymphs (Amblyomma hebraeum); assay: Amblyomma hebaraeum test (AMBYHE), tick nymph immersion; format: in vivo; conditions: application rate 100 ppm; immersion one minute; after 42 days
Procedure: Amblyomma hebaraeum Test (AMBYHE) Solvent: dimethyl sulphoxide To produce a suitable preparation of active compound, 10 mg of active compound are mixed with 0.5 ml of dimethyl sulphoxide, and the concentrate is diluted with water to the desired concentration. Tick nymphs (Amblyomma hebraeum) are placed into perforated plastic beakers and immersed in the desired concentration for one minute. The ticks are transferred on filter paper into a Petri dish and stored in a climate-controlled cabinet. After 42 days, the kill in % is determined. 100% means that all of the ticks have been killed; 0% means that none of the ticks have been killed.

[10] = test system: cattle ticks (Boophilus microplus) Parkhurst strain, SP-resistant; assay: Boophilus microplus dip test (BOOPMI Dip); format: in vivo; conditions: application rate 100 ppm, assessed after 7 days
Procedure: Boophilus microplus—Dip Test (BOOPMI Dip)
Test animals: cattle ticks (Boophilus microplus) Parkhurst strain, SP-resistant
Solvent: dimethyl sulphoxide
10 mg of active compound are dissolved in 0.5 ml of dimethyl sulphoxide. To prepare a suitable formulation, the active compound solution is diluted with water to the concentration desired in each case.
This active compound preparation is pipetted into tubes. 8-10 adult engorged female cattle ticks (Boophilus microplus) are transferred into a further tube with holes. The tube is immersed into the active compound formulation, and all ticks are completely wetted. After the liquid has run out, the ticks are transferred on filter discs into plastic dishes and stored in a climate-controlled room.
The activity is assessed after 7 days by laying of fertile eggs. Eggs whose fertility is not visible from the outside are stored in a climate-controlled cabinet until the larvae hatch after about 42 days. An efficacy of 100% means that none of the ticks has laid any fertile eggs; 0% means that all eggs are fertile.

[11] = log P determination by HPLC on reversed-phase column (C18), EEC Directive 79/831 Annex V.A8; format: physicochemical; conditions: method a): Agilent 1100 LC, Zorbax Eclipse Plus C18, acetonitrile/water with formic acid, gradient 10-95% in 4.25 min, 55° C.
Procedure: Agilent 1100 LC system; 50*4.6 Zorbax Eclipse Plus C18 1.8 micron; mobile phase A: acetonitrile (0.1% formic acid); mobile phase B: water (0.09% formic acid); linear gradient from 10% acetonitrile to 95% acetonitrile in 4.25 min, then 95% acetonitrile for a further 1.25 min; oven temperature 55° C.; flow rate: 2.0 ml/min. Mass detection is carried out via an Agilend MSD system.
^a)Unless indicated otherwise, the following method was used to determine the log P values and masses: The determination of the given log P values was carried out in accordance with EEC Directive 79/831 Annex V.A8 by HPLC (High Performance Liquid Chromatography) on a reversed-phase column (C18). Agilent 1100 LC system; 50*4.6 Zorbax Eclipse Plus C18 1.8 micron; mobile phase A: acetonitrile (0.1% formic acid); mobile phase B: water (0.09% formic acid); linear gradient from 10% acetonitrile to 95% acetonitrile in 4.25 min, then 95% acetonitrile for a further 1.25 min; oven temperature 55° C.; flow rate: 2.0 ml/min. Mass detection is carried out via an Agilend MSD system. ^b)Note for the alternative method for determining log P values and masses: The stated log P values were determined in accordance with EEC Directive 79/831 Annex V.A8 by HPLC (High Performance Liquid Chromatography) using a reversed-phase column (C18). Waters ACQUITY UPLC-MS system; 2.1*50 mm Zorbax Eclipse Plus C18 1.8 μm 600 bar; injection volume: 0.5 ul about 1000 ppm; mobile phase A: acetonitrile (0.1% formic acid); mobile phase B: water (0.085% formic acid); linear gradient from 10% acetonitrile to 95% acetonitrile in 1.5 min, then 95% acetonitrile for a further 0.5 min; oven temperature 60° C.; flow rate: 1.0 ml/min. Mass detection is carried out via a Waters SQD system.

## CCC(=O)NCc1cccc(-c2cnn(-c3c(C(F)(F)F)c(C(F)(F)C(F)(F)F)nn3C)c2)c1 [Ic-1, N-{3-[2′-methyl-5′-(pentafluoroethyl)-4′-(trifluoromethyl)-2′H-1,3′-bipyrazol-4-yl]benzyl}propanamide]
[1]
  nematicidal efficacy in % (formation of galls): 90%
[2]
  efficacy in %: 90%
[3]
  kill in %: 100%
[4]
  kill in %: 100%
[5]
  efficacy (no laying of fertile eggs): 100%
[6]
  efficacy in %: 100%
[7]
  efficacy in %: 100%
[8]
  kill in %: 100%
[9]
  kill in %: 100%
[10]
  efficacy (no laying of fertile eggs): 100%
[11]
  chromatographic logP: 3.59
